Source: US6440440B1, “Biocidal benzylbiphenyl derivatives” (priority 1998, dated 2002)

How the values were obtained:
Type in all cases: cell-based
[1] = system: Rhodotorula rubra; experiment: Screening against yeasts; design: key: 3 = complete inhibition of growth, 2 = growth partially controlled; conditions: test compound concentration 500 μmol
Experimental: (§1) The stock solutions with the test compounds were pipetted into multiwell plates and mixed with warm tryptose broth agar (2.6%) in order to reach a test compound concentration of 500 μMol. The medium was allowed to cool and subsequently inoculated with the bacteria. Wells were placed in an incubator at 27° C. and a relative humidity of 70%. After sufficient growth of the untreated cultures, the test was evaluated.
(§2) 3: complete inhibition of bacterial growth
(§3) 2: bacterial growth partially controlled
(§4) A number of compounds of formula (I) were also tested in a screening against certain The test conditions are the same as described in biological example C.1. The concentration of the test compound was also 500 μmol, and the scoring system used was also the same.

[2] = system: Sporobolomyces roseus; experiment: Screening against yeasts; design: key: 3 = complete inhibition of growth, 2 = growth partially controlled; conditions: test compound concentration 500 μmol
Experimental: as §1, §2, §3, §4
Sporobolomyces roseus (21)

[3] = system: Providencia rettgeri; experiment: Poison plate assay, combinations with BAC; conditions: for Calculated activity: Limpel's formula
Experimental: (§5) Biocidal activity against bacterial/yeast growth was determined with the poison plate assay. To obtain the required concentrations of the test compound, calculated amounts of stock solutions (DMSO) were pipetted into multi-well plates. Tryptose agar (except for Rhodotorula: PDA) was added aseptically and uniform distribution was obtained by shaking. Each plate was inoculated with a bacterial/yeast suspension. After incubation at 27° C. and 70% relative humidity, for a period long enough to allow complete growth of controls, percentage activity as compared to the control was scored.
(§6) Possible synergy was investigated using Limpel's formula (Richter, D. L., Pestic. Sci. 1987, 19: 309-315): [formula]
(§7) where EC is the expected additive response, or calculated activity, X is the observed percentage control when compound A is applied alone and Y is the observed percentage control when compound B is applied alone. Synergy was considered to occur when the observed effect, or measured activity, of a combination of both compounds was greater than the corresponding EC value.
The table C.7 to C.8 below enumerate the measured and calculated activities of BAC and compounds 20, 42 and 40 when tested as a single test compound or as a combination against Providencia rettgeri. BAC (benzalconium chloride) is a well-bacteride and was tested at a concentration of 40 and 80 μmol. Compounds 20, 40 and 42 were tested at a concentration of 10, 20, 40, 80 and 160 μmol. When a synergistic effect was observed, the “measured” and “calculated” activity are indicated with a bold typeface.

[4] = system: Rhodotorula rubra; experiment: Poison plate assay, synergistic effect in combinations with BIT; conditions: for Calculated activity: Limpel's formula
Experimental: as §5, §6, §7
(§8) The table C.4 to C.6 below enumerate the measured and calculated activities of BIT and compounds 20, 42 and 40 when tested as a single test compound or as a combination against Rhodotorula rubra or Cellulomonas flavigena. BIT (1,2-benzisothiazol-3(2H)-one) is a well-known bacteride and was tested at a concentration of 25 and 50 μmol. Compounds 20, 40 and 42 were tested at a concentration of 25, 50 and 75 μmol. When a synergistic effect was observed, the “measured” and “calculated” activity are indicated with a bold typeface.

[5] = system: Cellulomonas flavigena; experiment: as above; conditions: for Calculated activity: Limpel's formula
Experimental: as §5, §6, §7, §8

[6] = system: Pseudomonas aeruginosa; experiment: Primary bacteria screening; design: key: score: 3 = complete inhibition of growth, 2 = growth partially controlled; conditions: test compound concentration 500 μMol in tryptose broth agar, 27° C.
Experimental: as §1, §2, §3

[7] = system: Escherichia coli; experiment: Primary bacteria screening; design: key: score: 3 = complete inhibition of growth, 2 = growth partially controlled; conditions: test compound concentration 500 μMol in tryptose broth agar, 27° C.
Experimental: as §1, §2, §3

[8] = system: Debaryomyces hansenii; experiment: Screening against yeasts; design: key: 3 = complete inhibition of growth, 2 = growth partially controlled; conditions: test compound concentration 500 μM
Experimental: as §1, §2, §3, §4
Debaryomyces hansenii (19)

[9] = BAC 40 μmol + compound 160 μmol
[10] = BAC 80 μmol + compound 160 μmol
[11] = combination BAC 40 μmol + compound 10 μmol
[12] = combination BAC 40 μmol + compound 20 μmol
[13] = combination BAC 40 μmol + compound 40 μmol
[14] = combination BAC 40 μmol + compound 80 μmol
[15] = combination BAC 40 μmol + compound 160 μmol
[16] = combination BAC 80 μmol + compound 10 μmol
[17] = combination BAC 80 μmol + compound 20 μmol
[18] = combination BAC 80 μmol + compound 40 μmol
[19] = combination BAC 80 μmol + compound 80 μmol
[20] = combination BAC 80 μmol + compound 160 μmol
[21] = combination BIT 25 μmol + compound 25 μmol
[22] = combination BIT 25 μmol + compound 50 μmol
[23] = combination BIT 25 μmol + compound 75 μmol
[24] = combination BIT 50 μmol + compound 25 μmol
[25] = combination BIT 50 μmol + compound 50 μmol
[26] = combination BIT 50 μmol + compound 75 μmol

Cl.Cl.O.c1ccc(-c2ccc(C(c3ccccc3)C3CCN(C4CCNCC4)CC3)cc2)cc1 (racemic) [Co. No. 20, (±)-4-[[(1,1′-biphenyl)-4-yl]phenylmethyl](1,4′-bipiperidine)dihydrochloride monohydrate]
Test yeast (20) Rhodotorula rubra (score) [1]: 3
Test yeast (21) Sporobolomyces roseus (score) [2]: 3
Calculated activity ([3]; BAC 40 μmol + compound 10 μmol): 0%
Calculated activity ([3]; BAC 40 μmol + compound 20 μmol): 0%
Calculated activity ([3]; BAC 40 μmol + compound 40 μmol): 30%
Calculated activity ([3]; BAC 40 μmol + compound 80 μmol): 90%
Calculated activity [3, 9]: 100%
Calculated activity ([3]; BAC 80 μmol + compound 10 μmol): 100%
Calculated activity ([3]; BAC 80 μmol + compound 20 μmol): 100%
Calculated activity ([3]; BAC 80 μmol + compound 40 μmol): 100%
Calculated activity ([3]; BAC 80 μmol + compound 80 μmol): 100%
Calculated activity [3, 10]: 100%
Measured activity [3, 11]: 50%
Measured activity [3, 12]: 50%
Measured activity [3, 13]: 100%
Measured activity [3, 14]: 100%
Measured activity [3, 15]: 100%
Measured activity [3, 16]: 100%
Measured activity [3, 17]: 100%
Measured activity [3, 18]: 100%
Measured activity [3, 19]: 100%
Measured activity [3, 20]: 100%
Measured activity ([3]; compound alone 10 μmol): 0%
Measured activity ([3]; compound alone 20 μmol): 0%
Measured activity ([3]; compound alone 40 μmol): 30%
Measured activity ([3]; compound alone 80 μmol): 90%
Measured activity ([3]; compound alone 160 μmol): 100%
Calculated activity ([4]; BIT 25 μmol + compound 25 μmol): 0%
Calculated activity ([4]; BIT 25 μmol + compound 50 μmol): 0%
Calculated activity ([4]; BIT 25 μmol + compound 75 μmol): 0%
Calculated activity ([4]; BIT 50 μmol + compound 25 μmol): 0%
Calculated activity ([4]; BIT 50 μmol + compound 50 μmol): 0%
Calculated activity ([4]; BIT 50 μmol + compound 75 μmol): 0%
Measured activity [4, 21]: 0%
Measured activity [4, 22]: 100%
Measured activity [4, 23]: 100%
Measured activity [4, 24]: 100%
Measured activity [4, 25]: 100%
Measured activity [4, 26]: 100%
Measured activity ([4]; compound alone 25 μmol): 0%
Measured activity ([4]; compound alone 50 μmol): 0%
Measured activity ([4]; compound alone 75 μmol): 0%
Calculated activity ([5]; BIT 25 μmol + compound 25 μmol): 0%
Calculated activity ([5]; BIT 25 μmol + compound 50 μmol): 0%
Calculated activity ([5]; BIT 25 μmol + compound 75 μmol): 0%
Calculated activity ([5]; BIT 50 μmol + compound 25 μmol): 100%
Calculated activity ([5]; BIT 50 μmol + compound 50 μmol): 100%
Calculated activity ([5]; BIT 50 μmol + compound 75 μmol): 100%
Measured activity [5, 21]: 0%
Measured activity [5, 22]: 100%
Measured activity [5, 23]: 95%
Measured activity [5, 24]: 100%
Measured activity [5, 25]: 100%
Measured activity [5, 26]: 100%
Measured activity ([5]; compound alone 25 μmol): 0%
Measured activity ([5]; compound alone 50 μmol): 0%
Measured activity ([5]; compound alone 75 μmol): 0%
P. aeruginosa (growth inhibition score) [6]: 3
E. coli (growth inhibition score) [7]: 3
Test yeast (19) Debaryomyces hansenii (score) [8]: 3

O=c1[nH]sc2ccccc12 [BIT, 1,2-benzisothiazol-3(2H)-one, reference compound]
Measured activity ([4]; BIT alone 25 μmol): 0%
Measured activity ([4]; BIT alone 50 μmol): 0%
Measured activity ([5]; BIT alone 25 μmol): 0%
Measured activity ([5]; BIT alone 50 μmol): 100%

Cl.Cl.NCCCNCCC(c1ccccc1)c1ccc(-c2ccccc2)cc1 (stereo not shown) [Co. No. 40]
Test yeast (20) Rhodotorula rubra (score) [1]: 3
Test yeast (21) Sporobolomyces roseus (score) [2]: 3
Calculated activity ([3]; BAC 40 μmol + compound 10 μmol): 50%
Calculated activity ([3]; BAC 40 μmol + compound 20 μmol): 50%
Calculated activity ([3]; BAC 40 μmol + compound 40 μmol): 95%
Calculated activity ([3]; BAC 40 μmol + compound 80 μmol): 100%
Calculated activity [3, 9]: 100%
Calculated activity ([3]; BAC 80 μmol + compound 10 μmol): 100%
Calculated activity ([3]; BAC 80 μmol + compound 20 μmol): 100%
Calculated activity ([3]; BAC 80 μmol + compound 40 μmol): 100%
Calculated activity ([3]; BAC 80 μmol + compound 80 μmol): 100%
Calculated activity [3, 10]: 100%
Measured activity [3, 11]: 100%
Measured activity [3, 12]: 100%
Measured activity [3, 13]: 100%
Measured activity [3, 14]: 100%
Measured activity [3, 15]: 100%
Measured activity [3, 16]: 100%
Measured activity [3, 17]: 100%
Measured activity [3, 18]: 100%
Measured activity [3, 19]: 100%
Measured activity [3, 20]: 100%
Measured activity ([3]; compound alone 10 μmol): 0%
Measured activity ([3]; compound alone 20 μmol): 0%
Measured activity ([3]; compound alone 40 μmol): 90%
Measured activity ([3]; compound alone 80 μmol): 100%
Measured activity ([3]; compound alone 160 μmol): 100%
P. aeruginosa (growth inhibition score) [6]: 3
E. coli (growth inhibition score) [7]: 3
Test yeast (19) Debaryomyces hansenii (score) [8]: 3

Cl.Cl.NCCCN1CCC(C(c2ccccc2)c2ccc(-c3ccccc3)cc2)CC1.O (stereo not shown) [Co. No. 42]
Test yeast (20) Rhodotorula rubra (score) [1]: 3
Test yeast (21) Sporobolomyces roseus (score) [2]: 3
Calculated activity ([3]; BAC 40 μmol + compound 10 μmol): 0%
Calculated activity ([3]; BAC 40 μmol + compound 20 μmol): 0%
Calculated activity ([3]; BAC 40 μmol + compound 40 μmol): 30%
Calculated activity ([3]; BAC 40 μmol + compound 80 μmol): 90%
Calculated activity [3, 9]: 100%
Calculated activity ([3]; BAC 80 μmol + compound 10 μmol): 100%
Calculated activity ([3]; BAC 80 μmol + compound 20 μmol): 100%
Calculated activity ([3]; BAC 80 μmol + compound 40 μmol): 100%
Calculated activity ([3]; BAC 80 μmol + compound 80 μmol): 100%
Calculated activity [3, 10]: 100%
Measured activity [3, 11]: 50%
Measured activity [3, 12]: 50%
Measured activity [3, 13]: 100%
Measured activity [3, 14]: 100%
Measured activity [3, 15]: 100%
Measured activity [3, 16]: 100%
Measured activity [3, 17]: 100%
Measured activity [3, 18]: 100%
Measured activity [3, 19]: 100%
Measured activity [3, 20]: 100%
Measured activity ([3]; compound alone 10 μmol): 0%
Measured activity ([3]; compound alone 20 μmol): 0%
Measured activity ([3]; compound alone 40 μmol): 30%
Measured activity ([3]; compound alone 80 μmol): 90%
Measured activity ([3]; compound alone 160 μmol): 100%
P. aeruginosa (growth inhibition score) [6]: 3
E. coli (growth inhibition score) [7]: 3
Test yeast (19) Debaryomyces hansenii (score) [8]: 3
